In one data set the test system is Plant. To be noted: chronic/long-term; development.
The test system of another data set is Typhlodromus pyri. To be noted: not reported.
A further data set deals with Canidae. To be noted: subchronic; duration: 90 days; oral; Dog Other; histopathology: nonneoplastic.
The test system of a further data set is Daphnia magna. The conditions noted are these: chronic/long-term; duration: 21 days.
The test system of the next data set is Mus musculus. The conditions noted are these: acute; oral; mortality.
In another data set the test system is Folsomia candida. The conditions noted are these: chronic/long-term; reproduction.
The subject of a further data set is Anas platyrhynchos. The conditions noted are these: oral, mortality.
Another data set has as its system Apis mellifera. To be noted: acute; duration: 48 hours; oral; unspecified; mortality.
Setting [1] is: reproduction developmental, reproduction.

Converted amounts (≈) assume the structure as drawn.

By NOAEL is commonly meant the highest dose or exposure tested at which no adverse effect was seen. For `CC(C)N1C(=O)N(c2ccccc2)CSC1=NC(C)(C)C` [Buprofezin], the LC50 in the data set with Oncorhynchus mykiss (acute, duration: 96 hours, mortality) is 0.33 µg/mL (≈ 1.08 µM); in the data set with Colinus virginianus (acute, oral, diet, mortality), more than 1310 mg/kg-day; in the data set with Tagia sp. (acute, duration: 14 days, mortality), more than 1000 mg/kg; with Anas platyrhynchos (short-term, feed), more than 1310 mg/kg-day. For the same compound, the NOEC in the data set with Oncorhynchus mykiss (chronic/long-term, growth) was 0.052 mg/L; in the data set on Colinus virginianus (developmental, development), 48 mg/kg-day; with Colinus virginianus (setting [1]), 198 mg/kg-day; in the data set with Tagia sp. (chronic/long-term, reproduction) it was 500 mg/kg; in the data set on Daphnia magna, 0.08 mg/L; in the data set with Folsomia candida it was 62.5 mg/kg. Further, the LEL is more than 100 g/ha in the data set on Plant, 3000 g/ha in the data set on Typhlodromus pyri (mortality) and 3000 g/ha with Typhlodromus pyri (reproduction). For the same compound, the LD50 with Colinus virginianus (acute, oral, mortality) is more than 2000 mg/kg-day; in the data set on Rattus norvegicus (acute, oral, mortality) it was more than 2000 mg/kg-day; in the data set on Mus musculus, more than 2000 mg/kg-day; with Anas platyrhynchos (acute, unspecified) it was more than 2000 mg/kg-day; in the data set with Apis mellifera, more than 164 µg/piece. For the same compound, the NOAEL in the data set with Canidae amounted to 10 mg/kg-day; in the data set with Rattus norvegicus (chronic, duration: 2 years, histopathology: nonneoplastic), 1 mg/kg-day; with Rattus norvegicus (developmental, development) it was 50 mg/kg-day. The compound further displayed an NOEL in the data set on Rattus norvegicus (setting [1]) of 66 mg/kg-day.

(Values after EPA's ToxValDB 9.5 (doi:10.2903/j.efsa.2010.1624).)
